The assay has as its system skin surrounding the finger nail and the nail itself. Put plainly: Acidifying effect of salicylic acid paste in a fingerstall on skin and finger nail. As to conditions: paste 2% w/w in fingerstall, about 12 hours, vs empty fingerstall. The class given is in vivo. On the procedure:
In a study designed to investigate the acidifying effect on the skin surrounding the finger nail as well as the nail itself a paste comprising salicylic acid at 2% w/w was inserted in a fingerstall. The fingerstall was applied over the top of the finger covering it tightly for about 12 hours. A completely empty stall covering another finger served as control for the same time period
Upon scratching the nail surface with a sharp metal edge device, nail fragments (keratinized cells) were easily released in contrast to the nail at the finger covered with an empty fingerstall where the nail plate surface was hard.

With `O=C(O)c1ccccc1O` [salicylic acid], the “appearance of the skin after exposure” value was “softening and loosening up of the skin”; the “effect on the nail plate surface” value is “loosened up the superficial outer nail plate layer”.
